# Columns and labels:
# [1] = tested on: SLα mRNA expression in grass carp pituitary cells; assay: SLα mRNA expression (qPCR) in grass carp pituitary cells; assay type: cell-based, grass carp (Ctenopharyngodon idellus); settings: for SLα mRNA levels, activator alone: static incubation for 24 h, 8Br.cAMP 10 µM, forskolin 1 µM, Dic8 100 µM, TPA 10 µM, A23187 100 nM, BayK8644 100 nM (Figure 5D); for effect on SLα mRNA expression induced by IGF-I or senktide treatment alone: senktide 1 µM, IGF-I 100 nM; for effect on SLα mRNA expression induced by IGF-I or senktide treatment alone / effect on the synergistic effect on SLα mRNA expression caused by IGF-I and senktide cotreatment: inhibitors 10 µM, 2-APB 100 µM, calmidazolium 1 µM (Figure 5A–C); for effect on the synergistic effect on SLα mRNA expression caused by IGF-I and senktide cotreatment: senktide (1 µM) + IGF-I (100 nM); for enhancement of the stimulatory effects of TAC3 gene products on SLα mRNA expression: IGF-I/-II cotreatment
# Experimental: (§1) Grass carp pituitary cells prepared by the trypsin/DNase digestion method were seeded in 24-well plates at ~2.5 × 10^6 cells/mL/well. On the following day, drug treatment was initiated by replacing the old medium with a testing medium with the appropriate levels of test substances, and the cells were then allowed to incubate at 28 °C for the duration as indicated. After drug treatment, total RNA was extracted from individual wells and reversely transcribed as above. The RT samples obtained were subjected to qPCR using a LightCycler SYBR Green I Kit (Roche, Stockholm, Sweden) with the primers mentioned above. In these studies, serial dilutions of plasmid DNA containing the ORF of SLα (GeneBank no.: EF372074) and TACR3 (GenBank no: JQ254913) cDNA were used as the standards for data calibration. Parallel real-time PCR measurement of β-actin was also conducted in individual experiments to serve as the internal control.
# (§2) For real-time PCR of SLα and TACR3 mRNA measurement, standard curves with a dynamic range of ≥10^5 and correlation coefficient of ≥0.95 were used for data calibration with the RotorGene-Q software 1.7 (Qiagen) under unsupervised mode. SLα and TACR3 mRNA data were normalized with the β-actin transcript level and then were transformed as a percentage of the mean value in the control group without drug treatment (as “%Ctrl”). For the calcium bioluminescence signals and raw data obtained from luciferase reporter assays, the luminescence signals or luciferase activity was expressed as “relative luminescence unit (RLU)” registered by the fluorescence plate reader. For individual samples of the luciferase reporter assay, the firefly luciferase activity detected was routinely normalized against Renilla Luciferase activity expressed in the same well and expressed as the luciferase activity ration (as “Luc Ratio”). For receptor binding assay, specific binding of FAM-NKBa was measured in terms of “Arbitrary Fluorescence Unit (AFU)”. The six replicates presented (expressed as Mean ± SEM) were pooled results from two individual experiments prior to statistical analysis; all data were tested for normality of distribution using the Shapiro–Wilk normality test. Then, one-way ANOVA and two-way ANOVA were used to test the significant difference according to different experiment groups. The differences between groups were considered as significant at P < 0.05 (“*”) or highly significant at P < 0.01 (“**”).
# [2] = tested on: TACR3 mRNA expression in grass carp pituitary cells; assay: TACR3 mRNA expression (qPCR) in grass carp pituitary cells; assay type: cell-based, grass carp (Ctenopharyngodon idellus); settings: for TACR3 mRNA expression, dose-dependence: 24-h incubation, 0.01–100 nM (Figure 3C); for effect on IGF-I-induced TACR3 mRNA expression: 24 h cotreatment with IGF-I (10 nM), inhibitors 10 µM, wortmannin 1 µM, rapamycin 20 nM; for TACR3 mRNA expression, time course: 100 nM, from 1 h to 24 h (Figure 3B)
# Experimental: as §1, §2
# [3] = target: T1, grass carp TACR3 (Ctenopharyngodon idella, UniProt A0A075BDW2); assay: Fluorescence-based receptor binding assay, displacement of FAM-NKBa tracer; design: species or system grass carp (Ctenopharyngodon idellus); settings: HEK-293 cells with stable expression of grass carp TACR3, 30 min pretreatment with competitor, then FAM-NKBa (10 nM) 30 min, 37 °C; bound given in μM; read-out: IC50 for displacing FAM-NKBa binding
# T1 sequence (A0A075BDW2 1-395): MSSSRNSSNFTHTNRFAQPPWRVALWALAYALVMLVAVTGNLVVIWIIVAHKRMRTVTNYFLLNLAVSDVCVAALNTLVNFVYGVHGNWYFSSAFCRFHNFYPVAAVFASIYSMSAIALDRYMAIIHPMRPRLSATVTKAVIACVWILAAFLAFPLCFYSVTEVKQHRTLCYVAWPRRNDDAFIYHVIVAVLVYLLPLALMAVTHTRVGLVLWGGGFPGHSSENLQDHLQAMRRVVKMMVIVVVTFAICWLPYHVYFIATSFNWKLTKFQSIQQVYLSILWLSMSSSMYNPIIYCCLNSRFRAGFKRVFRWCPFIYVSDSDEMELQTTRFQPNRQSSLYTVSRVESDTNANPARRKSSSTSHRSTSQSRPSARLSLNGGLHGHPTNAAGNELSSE
# Experimental: The cells were then harvested and seeded onto 24-well plates at a density of 0.1 million/well and incubated at 37 °C under 5% CO2 for 24 h prior to the experiments. On the day of the experiments, the culture medium was aspirated and replaced with 500 μL serum-free DMEM with or without appropriated levels of unlabeled competitors. Cells were then allowed to incubate for 30 min at 37 °C under 5% CO2 and saturated humidity. FAM Carboxyfluorescein-labeled NKBa, namely FAM-NKBa, was used as a tracer for receptor binding experiments, and a 50-μL volume of FAM-NKBa (10 nM) was added into individual wells. After further incubation for 30 min at 37 °C, the cells were washed twice and with 500 μl PBS each to remove unbound ligands. […] The supernatant from individual wells was then collected in a 96-wells black view plate, and fluorescence signals indicative of FAM-NKBa binding were registered using FluoStar OPTIMA with excitation at 490 nm and emission at 520 nm.
# For receptor binding assay, specific binding of FAM-NKBa was measured in terms of “Arbitrary Fluorescence Unit (AFU)”. The six replicates presented (expressed as Mean ± SEM) were pooled results from two individual experiments prior to statistical analysis; all data were tested for normality of distribution using the Shapiro–Wilk normality test. […]
molecule,measurement,setting,value
CCCCCCCCCCCCCC(=O)O[C@@H]1[C@@H](C)[C@@]2(O)[C@@H](C=C(CO)C[C@]3(O)C(=O)C(C)=C[C@@H]23)[C@@H]2C(C)(C)[C@]12OC(C)=O [TPA],"SLα mRNA levels, activator alone",[1],effective in elevating SLα mRNA levels
CC[C@H](NC(=O)c1c(C)c(-c2ccccc2)nc2ccccc12)c1ccccc1 [SB222200],effect on the potentiating effect induced by IGF-I + NKBRPa on SLα transcript expression,"[1]; antagonist 10 µM, IGF-I (100 nM) + NKBRPa (1 µM) (Figure 4F)",markedly reduced
same,effect on IGF-I- or NKBRPa-induced SLα transcript expression,"[1]; antagonist 10 µM, NKBRPa 1 µM, IGF-I 100 nM (Figure 4F)",suppress
"insulin: Human insulin, purchased from Sigma","TACR3 mRNA expression, dose-dependence",[2],not mimicked
COc1cc([C@@H]2c3cc4c(cc3[C@H](O)[C@H]3COC(=O)[C@@H]23)OCO4)cc(OC)c1OC [PPP],effect on IGF-I-induced TACR3 mRNA expression,[2],partially inhibited
CNc1ccc2oc(C[C@H]3O[C@@]4(CC[C@H]3C)O[C@H]([C@H](C)C(=O)c3ccc[nH]3)[C@H](C)C[C@H]4C)nc2c1C(=O)O [A23187],"SLα mRNA levels, activator alone",[1],effective in elevating SLα mRNA levels
Clc1ccc(C(c2ccc(Cl)cc2)n2cc[n+](CC(OCc3ccc(Cl)cc3Cl)c3ccc(Cl)cc3Cl)c2)cc1 (stereo not drawn) [calmidazolium],effect on SLα mRNA expression induced by IGF-I or senktide treatment alone,[1],attenuated
same,effect on the synergistic effect on SLα mRNA expression caused by IGF-I and senktide cotreatment,[1],notably suppressed
C=C[C@@]1(C)CC(=O)[C@]2(O)[C@@]3(C)[C@@H](O)CCC(C)(C)[C@@H]3[C@H](O)[C@H](OC(C)=O)[C@@]2(C)O1 [forskolin],"SLα mRNA levels, activator alone",[1],effective in elevating SLα mRNA levels
COC(=O)C1=C(C)NC(C)=C(C(=O)OC)C1c1ccccc1[N+](=O)[O-] [nifedipine],effect on SLα mRNA expression induced by IGF-I or senktide treatment alone,[1],attenuated
same,effect on the synergistic effect on SLα mRNA expression caused by IGF-I and senktide cotreatment,[1],notably suppressed
Nc1ncnc2c1nc(Br)n2[C@@H]1O[C@@H]2COP(=O)(O)O[C@H]2[C@H]1O [8Br.cAMP],"SLα mRNA levels, activator alone",[1],effective in elevating SLα mRNA levels
O=P(O)(O)C(O)c1ccc2ccccc2c1 (stereo not drawn) [HNMPA],effect on IGF-I-induced TACR3 mRNA expression,[2],not effective
COc1ccc2c(c1)CC[C@@H]1[C@@H]2CC[C@]2(C)[C@@H](NCCCCCCN3C(=O)C=CC3=O)CC[C@@H]12 [U73122],effect on SLα mRNA expression induced by IGF-I or senktide treatment alone,[1],attenuated
same,effect on the synergistic effect on SLα mRNA expression caused by IGF-I and senktide cotreatment,[1],notably suppressed
O=S(=O)(NCCNC/C=C/c1ccc(Br)cc1)c1cccc2cnccc12 [H89],effect on SLα mRNA expression induced by IGF-I or senktide treatment alone,[1],attenuated
same,effect on the synergistic effect on SLα mRNA expression caused by IGF-I and senktide cotreatment,[1],notably suppressed
CO[C@H]1C[C@@H]2CC[C@@H](C)[C@@](O)(O2)C(=O)C(=O)N2CCCC[C@H]2C(=O)O[C@H]([C@H](C)C[C@@H]2CC[C@@H](O)[C@H](OC)C2)CC(=O)[C@H](C)/C=C(\C)[C@@H](O)[C@@H](OC)C(=O)[C@H](C)C[C@H](C)/C=C/C=C/C=C/1C [rapamycin],effect on IGF-I-induced TACR3 mRNA expression,[2],notably suppressed
CN(C)CCCn1cc(C2=C(c3c[nH]c4ccccc34)C(=O)NC2=O)c2ccccc21 [GF109203X],effect on SLα mRNA expression induced by IGF-I or senktide treatment alone,[1],attenuated
same,effect on the synergistic effect on SLα mRNA expression caused by IGF-I and senktide cotreatment,[1],notably suppressed
NCCOB(c1ccccc1)c1ccccc1 [2-APB],effect on SLα mRNA expression induced by IGF-I or senktide treatment alone,[1],attenuated
same,effect on the synergistic effect on SLα mRNA expression caused by IGF-I and senktide cotreatment,[1],notably suppressed
COC(=O)C1=C(C)NC(C)=C([N+](=O)[O-])C1c1ccccc1C(F)(F)F (stereo not drawn) [BayK8644],"SLα mRNA levels, activator alone",[1],effective in elevating SLα mRNA levels
Cl.c1ccc(C2CCCC2NC2=NCCCCCCCCCCC2)cc1 (stereo not drawn) [MDL12330A],effect on SLα mRNA expression induced by IGF-I or senktide treatment alone,[1],attenuated
same,effect on the synergistic effect on SLα mRNA expression caused by IGF-I and senktide cotreatment,[1],notably suppressed
"IGF-I: Human insulin-like growth factor I, purchased from Sigma",enhancement of the stimulatory effects of TAC3 gene products on SLα mRNA expression,[1],up to 8 fold increase
same,"SLα mRNA levels, treatment alone, time course","[1]; NKBRPa 1 µM, IGF-I 100 nM (Figure 4A)",induce SLα mRNA levels
same,NKBRPa-induced SLα transcript level enhanced by IGF-I cotreatment,"[1]; NKBRPa (1 µM) + IGF-I (100 nM), especially after 12–24 h",up to 10 folds basal
same,"TACR3 mRNA expression, time course",[2],significantly stimulate TACR3 mRNA expression
same,"TACR3 mRNA expression, dose-dependence",[2],trigger TACR3 mRNA expression in a concentration-related fashion
"IGF-II: Human insulin-like growth factor II, purchased from Sigma",enhancement of the stimulatory effects of TAC3 gene products on SLα mRNA expression,[1],up to 8 fold increase
same,"TACR3 mRNA expression, time course",[2],significantly stimulate TACR3 mRNA expression
same,"TACR3 mRNA expression, dose-dependence",[2],trigger TACR3 mRNA expression in a concentration-related fashion
"GR64349: TACR2-specific agonist (NK2R agonist, Tocris)",IC50,[3],> 10 µM
CN([C@@H](Cc1ccc(OS(=O)(=O)c2cccc3cnccc23)cc1)C(=O)N1CCN(c2ccccc2)CC1)S(=O)(=O)c1cccc2cnccc12 [KN62],effect on SLα mRNA expression induced by IGF-I or senktide treatment alone,[1],attenuated
same,effect on the synergistic effect on SLα mRNA expression caused by IGF-I and senktide cotreatment,[1],notably suppressed
COC[C@H]1OC(=O)c2coc3c2[C@@]1(C)C1=C(C3=O)[C@@H]2CCC(=O)[C@@]2(C)C[C@H]1OC(C)=O [wortmannin],effect on IGF-I-induced TACR3 mRNA expression,[2],notably suppressed
COc1ccc(Cl)cc1NC(=O)Nc1cc(C)nc2ccccc12 [PQ401],effect on IGF-I-induced TACR3 mRNA expression,[2],totally abolished
CCCCCCCC(=O)OCC(CO)OC(=O)CCCCCCC (stereo not drawn) [Dic8],"SLα mRNA levels, activator alone",[1],effective in elevating SLα mRNA levels
